Experimental data taken from patent US20260022112A1, “NOVEL CO-CRYSTAL OF ENAVOGLIFLOZIN” (DAEWOONG PHARMACEUTICAL CO., LTD., priority 2022, published 2026).
≈ marks a conversion by molar mass, not a printed value. Like-named read-outs stand apart in the source and are kept apart here. One block for each compound: values may come before it.

Assays:
[1] = crystalline form of Patent Document 2; cited from earlier work
[2] = Stress stability evaluation, 60° C., 4 weeks, HPLC; assay type: physicochemical
[3] = Pharmacokinetic evaluation in beagle dogs; assay type: in vivo; details: 1 mg/kg, plasma
Description: A test was conducted to confirm whether the pharmacokinetic profiles of enavogliflozin/proline co-crystals were improved in beagle dogs. Each of the crystalline form A of enavogliflozin and the proline co-crystal was orally administered at a dose of 1 mg/kg to male beagle dogs by setting the crystalline form A of enavogliflozin as a control and the proline co-crystal as a comparative group, and blood collection was conducted before administration (0 hour), and for 0.083, 0.25, 0.5, 0.75, 1, 1.5, 2, 4, 6, 8, 12, and 24 hours (a total of 13 times). Blood drug concentrations were analyzed by LC-MS/MS using plasma separated from the collected samples, and pharmacokinetic parameters such as the maximum observed plasma concentration (Cmax), an area under the plasma concentration-time curve (AUClast and AUCinf), a time-to-maximum observed plasma concentration (Tmax), and a half-life (T1/2) were calculated and interpreted using the WinNonlin 5.0.1 program.

[4] = Solubility in artificial intestinal fluid (FaSSIF); assay type: physicochemical; details: thermodynamic from solid
[5] = Solubility in artificial gastric fluid (FaSSGF); assay type: physicochemical; details: fassgf or other biorelevant, thermodynamic from solid

Structure (SMILES): OC[C@H]1O[C@@H](c2cc(Cc3ccc(C4CC4)cc3)c(Cl)c3c2CCO3)[C@H](O)[C@@H](O)[C@@H]1O [enavogliflozin]
Solubility (water solubility) [1]: 0.25 mg/mL (≈ 559 µM)

Purity (HPLC) in stress stability evaluation ([2]; 2 weeks): 99.9%
Purity (HPLC) in stress stability evaluation ([2]; 4 weeks): 99.8%
Purity (HPLC) in stress stability evaluation ([2]; Initial): 99.9%
AUCinf ([3]; male beagle dogs, oral): 5341.58 ng·h/mL
AUClast ([3]; male beagle dogs, oral): 4428.20 ng·h/mL
Cmax ([3]; male beagle dogs, oral): 482.60 ng/mL
T1/2 ([3]; male beagle dogs, oral): 6.10 h
Tmax ([3]; male beagle dogs, oral): 5.20 h
Structure (SMILES): OC[C@H]1O[C@@H](c2cc(Cc3ccc(C4CC4)cc3)c(Cl)c3c2CCO3)[C@H](O)[C@@H](O)[C@@H]1O [Enavogliflozin/proline co-crystal]
Thermal stability compared with crystalline form of enavogliflozin ([2]; 4 weeks): equivalent to that of the crystalline form of enavogliflozin

Purity (HPLC) in stress stability evaluation ([2]; 2 weeks, listed as Crystalline form of enavogliflozin): 98.8%
Purity (HPLC) in stress stability evaluation ([2]; 4 weeks, listed as Crystalline form of enavogliflozin): 99.1%
Purity (HPLC) in stress stability evaluation ([2]; Initial, listed as Crystalline form of enavogliflozin): 99.1%
AUC(0-inf) ([3]; male, beagle, dog, po): 4640 ng·h/mL
AUC(0-t) ([3]; male, beagle, dog, po): 4340 ng·h/mL
half-life ([3]; male, beagle, dog, po): 319 min
Cmax ([3]; male, beagle, dog, po, read-out: Cmax): 482 ng/mL
Tmax ([3]; male, beagle, dog, po, read-out: Tmax): 4 h
solubility at 30 min ([4]; 30 minutes): 690 µg/mL (≈ 1540 µM)
solubility at 1 h ([4]; 1 hour): 940 µg/mL (≈ 2100 µM)
solubility at 2 h ([4]; 2 hours): 1000 µg/mL (≈ 2240 µM)
solubility at 4 h ([4]; 4 hours): 920 µg/mL (≈ 2060 µM)
solubility at 0 h ([4]; Initial): 10000 µg/mL (≈ 22400 µM)
solubility at 30 min ([5]; 30 minutes): 310 µg/mL (≈ 694 µM)
solubility at 1 h ([5]; 1 hour): 340 µg/mL (≈ 761 µM)
solubility at 2 h ([5]; 2 hours): 350 µg/mL (≈ 783 µM)
solubility at 4 h ([5]; 4 hours): 350 µg/mL (≈ 783 µM)
Structure (SMILES): OC[C@H]1O[C@@H](c2cc(Cc3ccc(C4CC4)cc3)c(Cl)c3c2CCO3)[C@H](O)[C@@H](O)[C@@H]1O [Crystalline form A of enavogliflozin, enavogliflozin]
